Columns and labels:
Conditions in all cases: 72 h
Calu-3 [1] = experiment: drug sensitivity score (DSS) for viability; higher = more toxic; extreme values may be limits of the assay
U2OS [2] = experiment: as above
HepG2 [3] = experiment: as above
Caco-2 [4] = experiment: as above
Vero E6 [5] = experiment: as above
Calu-3 [6] = experiment: relative viability EC50 (midpoint between 100% and the lowest measured viability); higher = less toxic
U2OS [7] = experiment: as above
HepG2 [8] = experiment: as above
Caco-2 [9] = experiment: as above
Vero E6 [10] = experiment: as above
Calu-3 [11] = experiment: cell viability relative to DMSO; higher = less toxic
U2OS [12] = experiment: as above
HepG2 [13] = experiment: as above
Caco-2 [14] = experiment: as above
Vero E6 [15] = experiment: as above

SMILES | drug sensitivity score (Calu-3 [1]) | drug sensitivity score (U2OS [2]) | drug sensitivity score (HepG2 [3]) | drug sensitivity score (Caco-2 [4]) | drug sensitivity score (Vero E6 [5]) | relative viability EC50 (Calu-3 [6]) [µM] | relative viability EC50 (U2OS [7]) [µM] | relative viability EC50 (HepG2 [8]) [µM] | relative viability EC50 (Caco-2 [9]) [µM] | relative viability EC50 (Vero E6 [10]) [µM] | cell viability (Calu-3 [11]; 1 nM) [%] | cell viability (Calu-3 [11]; 10 nM) [%] | cell viability (Calu-3 [11]; 100 nM) [%] | cell viability (Calu-3 [11]; 1000 nM) [%] | cell viability (Calu-3 [11]; 10000 nM) [%] | cell viability (U2OS [12]; 1 nM) [%] | cell viability (U2OS [12]; 10 nM) [%] | cell viability (U2OS [12]; 100 nM) [%] | cell viability (U2OS [12]; 1000 nM) [%] | cell viability (U2OS [12]; 10000 nM) [%] | cell viability (HepG2 [13]; 1 nM) [%] | cell viability (HepG2 [13]; 10 nM) [%] | cell viability (HepG2 [13]; 100 nM) [%] | cell viability (HepG2 [13]; 1000 nM) [%] | cell viability (HepG2 [13]; 10000 nM) [%] | cell viability (Caco-2 [14]; 1 nM) [%] | cell viability (Caco-2 [14]; 10 nM) [%] | cell viability (Caco-2 [14]; 100 nM) [%] | cell viability (Caco-2 [14]; 1000 nM) [%] | cell viability (Caco-2 [14]; 10000 nM) [%] | cell viability (Vero E6 [15]; 1 nM) [%] | cell viability (Vero E6 [15]; 10 nM) [%] | cell viability (Vero E6 [15]; 100 nM) [%] | cell viability (Vero E6 [15]; 1000 nM) [%] | cell viability (Vero E6 [15]; 10000 nM) [%]
Nc1ncnc2c1ncn2[C@H]1O[C@@H](C(=O)N2CCN(CC(=O)Nc3cccc4c3CNC4=O)CC2)[C@H](O)[C@@H]1O [EB-47] | 0.1 | 0 | 0 | 0 | 0 | > 10 | > 10 | > 10 | > 10 | > 10 | 92 | 102 | 91.3 | 104 | 85.7 | 99.4 | 107 | 102 | 100 | 96.7 | 102 | 96.3 | 103 | 102 | 93.9 | 97.8 | 103 | 104 | 94.8 | 92.6 | 102 | 98.6 | 94.7 | 92.4 | 97.6
C=C1/C(=C\C=C2/CCC[C@]3(C)[C@@H]([C@H](C)/C=C/[C@H](C)C(C)(C)O)CC[C@@H]23)C[C@@H](O)C[C@@H]1O [ercalcitriol] | 0 | 0 | 0.1 | 0 | 0 | > 10 | > 10 | > 10 | > 10 | > 10 | 106 | 99.2 | 101 | 99 | 100 | 104 | 99.7 | 99.4 | 95.7 | 91.5 | 104 | 107 | 104 | 104 | 84.7 | 97.7 | 110 | 106 | 96.4 | 94.6 | 99 | 99.6 | 88.5 | 98.1 | 94.9
N#Cc1ncccn1 [2-cyanopyrimidine] | 0 | 0 | 0 | 0 | 0 | > 10 | > 10 | > 10 | > 10 | > 10 | 102 | 99.3 | 101 | 91.6 | 96.9 | 100 | 104 | 96.7 | 99.6 | 97.9 | 102 | 100 | 93.7 | 93.6 | 111 | 98.5 | 93.7 | 101 | 99.3 | 102 | 93.8 | 104 | 97 | 106 | 94.6
CC(C)[C@@H](CN1CC[C@@](C)(c2cccc(O)c2)[C@@H](C)C1)NC(=O)[C@H]1Cc2ccc(O)cc2CN1 [JDTic] | 0.2 | 0 | 0 | 0 | 0 | > 10 | > 10 | > 10 | > 10 | > 10 | 103 | 103 | 95 | 109 | 83.2 | 96.7 | 104 | 95.5 | 101 | 102 | 100 | 95.6 | 99.4 | 101 | 99.6 | 91.9 | 95.2 | 96.7 | 93.3 | 98.5 | 99.4 | 98 | 97.6 | 95.1 | 102
CC(=O)N1CCC(NC(=O)c2ccc(F)cc2)CC1 [FK-962] | 0 | 0 | 0 | 0 | 0 | > 10 | > 10 | > 10 | > 10 | > 10 | 108 | 98.7 | 101 | 99.5 | 95.8 | 97.8 | 97.9 | 98.6 | 103 | 94.4 | 107 | 104 | 134 | 92.6 | 108 | 101 | 97.4 | 104 | 108 | 114 | 98.1 | 87.7 | 98.3 | 88.5 | 94.3
CO[C@H]1/C=C/O[C@@]2(C)Oc3c(C)c(O)c4c(O)c(c(/C=N/N=C/N5CCCCC5)c(O)c4c3C2=O)NC(=O)/C(C)=C\C=C\[C@H](C)[C@H](O)[C@@H](C)[C@@H](O)[C@@H](C)[C@H](OC(C)=O)[C@@H]1C | 0 | 0 | 0 | 0 | 0 | > 10 | > 10 | > 10 | > 10 | > 10 | 107 | 102 | 105 | 98.2 | 101 | 102 | 106 | 99 | 99.6 | 91.6 | 98.5 | 101 | 93.3 | 113 | 108 | 85.4 | 96.2 | 84.9 | 90.9 | 83.1 | 102 | 100 | 98 | 98.2 | 90.9
